# Data from ChEMBL document CHEMBL1201862, “PubChem BioAssay data set” (2004).
#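 1) Cells in 96-well plates. 2) Compound, 48 h, 5 concentrations. 3) Linear interpolation between surrounding doses. 4) Unreached endpoint = highest concentration. GI50 = concentration required for 50% inhibition of growth.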 Active and inactive are the calls of the source. Cut-off read from the data, not from the text of the source: active = GI50 up to about 1.1 µM and inactive = higher.
# How the values were obtained:
# Experiment in all cases: NCI tumour cell line growth inhibition, 48 h
# [1] = test system: DMS-114
# [2] = test system: EKVX
# [3] = test system: HCC 2998
# [4] = test system: HL-60
# [5] = test system: HT-29
# [6] = test system: IGROV-1
# [7] = test system: LOX IMVI
# [8] = test system: MOLT-4
# [9] = test system: Malme-3M
# [10] = test system: NCI-H226
# [11] = test system: NCI-H23
# [12] = test system: NCI-H460
# [13] = test system: SF-539
# [14] = test system: SK-MEL-5
# [15] = test system: SNB-78
# [16] = test system: UACC-257
# [17] = test system: UACC-62
# [18] = test system: CAKI-1
# [19] = test system: BT-549
# [20] = test system: MDA-N
Structure (SMILES),GI50 [1],GI50 [2],GI50 [3],GI50 [4],GI50 [5],GI50 [6],GI50 [7],GI50 [8],GI50 [9],GI50 [10],GI50 [11],GI50 [12],GI50 [13],GI50 [14],GI50 [15],GI50 [16],GI50 [17],GI50 [18],GI50 [19],GI50 [20]
CCCCCOc1ccc(/C=N\c2ccc(CCc3ccc(/N=C/c4ccc(OCCCCC)cc4)cc3)cc2)cc1,> 100 µM (inactive),> 100 µM (inactive),> 100 µM (inactive),> 100 µM (inactive),> 100 µM (inactive),> 100 µM (inactive),> 100 µM (inactive),> 100 µM (inactive),> 100 µM (inactive),> 100 µM (inactive),> 100 µM (inactive),> 100 µM (inactive),> 100 µM (inactive),> 100 µM (inactive),> 100 µM (inactive),> 100 µM (inactive),> 100 µM (inactive),,,
Cn1cnc([N+](=O)[O-])c1Sc1n[nH]c(-c2ccc(Cl)cc2)n1,18.2 µM (inactive),23.9 µM (inactive),21.3 µM (inactive),,19.1 µM (inactive),20 µM (inactive),15 µM (inactive),12.2 µM (inactive),11.1 µM (inactive),14 µM (inactive),18.6 µM (inactive),20.8 µM (inactive),15.3 µM (inactive),15.7 µM (inactive),19.8 µM (inactive),17.1 µM (inactive),14.4 µM (inactive),25.1 µM (inactive),,
CCOC(=O)C(=O)CC(=O)C(Br)C(Br)c1ccc(Cl)cc1 (stereo unspecified),43 µM (inactive),> 100 µM (inactive),> 100 µM (inactive),17.2 µM (inactive),18.6 µM (inactive),42.5 µM (inactive),29.2 µM (inactive),21.7 µM (inactive),31.8 µM (inactive),,30.5 µM (inactive),> 100 µM (inactive),,57.4 µM (inactive),44.2 µM (inactive),29.5 µM (inactive),46 µM (inactive),40.7 µM (inactive),,
C[s+]1c2ccccc2c2ccccc21,,> 100 µM (inactive),> 100 µM (inactive),> 100 µM (inactive),> 100 µM (inactive),> 100 µM (inactive),> 100 µM (inactive),> 100 µM (inactive),> 100 µM (inactive),58.5 µM (inactive),> 10 µM (inactive),> 100 µM (inactive),> 100 µM (inactive),> 100 µM (inactive),> 100 µM (inactive),,> 100 µM (inactive),,,
N=C(N)NS(=O)(=O)c1ccc(NC(=O)c2cccc3c(Nc4ccc(S(=O)(=O)N=C(N)N)cc4)c4ccccc4nc23)cc1,24.9 µM (inactive),71 µM (inactive),,27 µM (inactive),42.1 µM (inactive),70.5 µM (inactive),43.3 µM (inactive),35.7 µM (inactive),> 100 µM (inactive),,44.3 µM (inactive),> 100 µM (inactive),41.1 µM (inactive),22.2 µM (inactive),24.8 µM (inactive),> 100 µM (inactive),45.8 µM (inactive),> 10 µM (inactive),,
O=C1c2ccccc2C(=O)N1CC#CCO,,> 100 µM (inactive),,> 100 µM (inactive),> 100 µM (inactive),,,> 100 µM (inactive),,> 100 µM (inactive),> 100 µM (inactive),> 100 µM (inactive),> 100 µM (inactive),> 100 µM (inactive),> 100 µM (inactive),> 100 µM (inactive),> 100 µM (inactive),> 100 µM (inactive),,
O=C1OC2C(O)COC2(O)C1(O)Cc1c[nH]c2ccccc12 (stereo unspecified),> 100 µM (inactive),> 100 µM (inactive),,> 100 µM (inactive),> 100 µM (inactive),> 100 µM (inactive),> 100 µM (inactive),> 100 µM (inactive),> 100 µM (inactive),> 100 µM (inactive),> 100 µM (inactive),> 100 µM (inactive),> 100 µM (inactive),> 100 µM (inactive),> 100 µM (inactive),> 100 µM (inactive),> 100 µM (inactive),> 100 µM (inactive),,
CC(C)(C)/N=C\N(C=C(c1ccccc1)c1ccccc1)C1CCCCC1,19.2 µM (inactive),93.1 µM (inactive),,,25.9 µM (inactive),50.9 µM (inactive),25.2 µM (inactive),,17.1 µM (inactive),,40.3 µM (inactive),38.2 µM (inactive),50.5 µM (inactive),16.5 µM (inactive),69 µM (inactive),33.3 µM (inactive),44.1 µM (inactive),50.6 µM (inactive),,
COc1ccc(Nc2nc3ccc(C(F)(F)F)cc3nc2-c2ccccc2)cc1OC,38.7 µM (inactive),20.7 µM (inactive),14.6 µM (inactive),36.1 µM (inactive),6.65 µM (inactive),60.7 µM (inactive),16.1 µM (inactive),22 µM (inactive),51.9 µM (inactive),28.6 µM (inactive),32.4 µM (inactive),16.4 µM (inactive),42.6 µM (inactive),35.8 µM (inactive),,38.5 µM (inactive),66.8 µM (inactive),60.4 µM (inactive),,
Cc1cccc(C(C)C)c1NC(=O)C(=O)C(C(=O)c1ccccc1F)C1OC(=O)c2ccccc21 (stereo unspecified),10.2 µM (inactive),32.7 µM (inactive),13.7 µM (inactive),,29.6 µM (inactive),24.8 µM (inactive),13.4 µM (inactive),4.73 µM (inactive),9.82 µM (inactive),3.25 µM (inactive),15 µM (inactive),24.6 µM (inactive),8.28 µM (inactive),14.1 µM (inactive),,13 µM (inactive),10.4 µM (inactive),31.5 µM (inactive),,
CC(O)CNC(=O)C(C)Oc1ccc(OCC2CCCCC2)cc1 (stereo unspecified),46.3 µM (inactive),,> 100 µM (inactive),> 100 µM (inactive),> 100 µM (inactive),> 100 µM (inactive),> 100 µM (inactive),> 100 µM (inactive),> 100 µM (inactive),88.5 µM (inactive),,> 100 µM (inactive),> 100 µM (inactive),> 100 µM (inactive),> 100 µM (inactive),73.6 µM (inactive),> 100 µM (inactive),,,
CCOC(=O)COc1ccc(OC)c2c1C(=O)CCC2,> 100 µM (inactive),> 100 µM (inactive),,> 100 µM (inactive),> 100 µM (inactive),> 100 µM (inactive),> 100 µM (inactive),> 100 µM (inactive),,,> 100 µM (inactive),> 100 µM (inactive),> 100 µM (inactive),> 100 µM (inactive),> 100 µM (inactive),> 100 µM (inactive),> 100 µM (inactive),,,
CCN(CC)CCC(=O)NC1c2ccccc2Oc2c(C)cccc21 (stereo unspecified),> 100 µM (inactive),> 100 µM (inactive),> 100 µM (inactive),> 100 µM (inactive),> 100 µM (inactive),> 100 µM (inactive),> 100 µM (inactive),> 100 µM (inactive),,> 100 µM (inactive),> 100 µM (inactive),> 100 µM (inactive),> 100 µM (inactive),> 100 µM (inactive),> 100 µM (inactive),> 100 µM (inactive),> 100 µM (inactive),,,
COc1ccc2c(c1)[n+]([O-])c(C(=O)C/C(=N/NC(=O)c1ccccc1O)C(=O)Nc1ccc(Cl)c(C(F)(F)F)c1)c(C)[n+]2[O-],71.8 µM (inactive),48.9 µM (inactive),32.7 µM (inactive),,> 100 µM (inactive),44 µM (inactive),79.8 µM (inactive),37.3 µM (inactive),49.7 µM (inactive),> 100 µM (inactive),47.5 µM (inactive),46.5 µM (inactive),> 100 µM (inactive),45.8 µM (inactive),> 100 µM (inactive),91.6 µM (inactive),> 100 µM (inactive),,,
CCOC(=O)CC(NC(=O)c1nc[nH]c1/N=N/N(C)C)C(=O)OCC (stereo unspecified),> 100 µM (inactive),> 100 µM (inactive),> 100 µM (inactive),> 100 µM (inactive),> 100 µM (inactive),> 100 µM (inactive),> 100 µM (inactive),> 100 µM (inactive),> 100 µM (inactive),> 100 µM (inactive),> 100 µM (inactive),> 100 µM (inactive),> 100 µM (inactive),> 100 µM (inactive),,> 100 µM (inactive),> 100 µM (inactive),> 100 µM (inactive),,
CC(C)(C)[Si](Nc1ccccc1)(c1ccccc1)c1ccccc1,13.2 µM (inactive),16 µM (inactive),16.1 µM (inactive),13.6 µM (inactive),14.7 µM (inactive),14.7 µM (inactive),12.2 µM (inactive),10.1 µM (inactive),22.1 µM (inactive),15.3 µM (inactive),16.9 µM (inactive),18.4 µM (inactive),12.5 µM (inactive),17.5 µM (inactive),16.4 µM (inactive),14.9 µM (inactive),10.6 µM (inactive),,,
CCCC[C@H]1C(=O)O[C@H](C)[C@H](NC(=O)c2cccc(NC=O)c2O)C(=O)O[C@@H](C)[C@@H]1OC(=O)CC(C)C [ANTIMYCIN A3],,0.321 µM (active),10.9 µM (inactive),0.0968 µM (active),1.6 µM (inactive),3.94 µM (inactive),< 0.01 µM (active),< 0.01 µM (active),7.28 µM (inactive),0.883 µM (active),0.294 µM (active),< 0.01 µM (active),12.8 µM (inactive),< 0.01 µM (active),,0.04 µM (active),0.16 µM (active),11.9 µM (inactive),1.68 µM (inactive),2.43 µM (inactive)
